Source: article PMC11062922 (Nature Chemical Biology, 2023)
pEC50, pKd: −log10 of the molar value. Values belong to the compound of their own block, whether it stands above or below them.

What was measured:
CSK = target: T1, CSK (Homo sapiens, UniProt P41240); test: Kinobeads two-dose competition binding: CSK; conditions: read-out: Lestaurtinib Drugmatrix value, Gene Name CSK
T1 construct: endogenous in cells

[1] = target: T2, endogenous kinases and other proteins enriched by Kinobeads from mixed cancer cell lysates (Homo sapiens, UniProt O94804); test: Kinobeads pulldown, full dose-response (eight doses); format: binding; conditions: target STK10;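 further: competition with Kinobeads ε after inhibitor preincubation in lysate (5 mg/ml protein) for 45 min at 4 °C, DMSO control, doses 0.3–1,000 nM, label-free LC–MS/MS quantification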
T2 construct: endogenous in cells

[2] = target: T3, endogenous kinases and other proteins enriched by Kinobeads from mixed cancer cell lysates (Homo sapiens, UniProt Q6ZSR9); test: as above; format: binding; conditions: target Q6ZSR9
T3 construct: endogenous in cells

[3] = target: T4, endogenous kinases and other proteins enriched by Kinobeads from mixed cancer cell lysates (Homo sapiens, UniProt Q13043); test: as above; format: binding; conditions: target STK4
T4 construct: endogenous in cells

[4] = target: T5, endogenous kinases and other proteins enriched by Kinobeads from mixed cancer cell lysates (Homo sapiens, UniProt Q9BZL6); test: as above; format: binding; conditions: target PRKD2
T5 construct: endogenous in cells

[5] = target: T6, endogenous kinases and other proteins enriched by Kinobeads from mixed cancer cell lysates (Homo sapiens, UniProt Q9H0K1); test: as above; format: binding; conditions: target SIK2
T6 construct: endogenous in cells

[6] = target: T7, endogenous kinases and other proteins enriched by Kinobeads from mixed cancer cell lysates (Homo sapiens, UniProt Q96L34); test: as above; format: binding; conditions: target MARK4
T7 construct: endogenous in cells

[7] = target: T8, endogenous kinases and other proteins enriched by Kinobeads from mixed cancer cell lysates (Homo sapiens, UniProt O00444); test: as above; format: binding; conditions: target PLK4
T8 construct: endogenous in cells

[8] = target: T9, endogenous kinases and other proteins enriched by Kinobeads from mixed cancer cell lysates (Homo sapiens, UniProt O14965); test: as above; format: binding; conditions: target AURKA
T9 construct: endogenous in cells

[9] = target: T10, endogenous kinases and other proteins enriched by Kinobeads from mixed cancer cell lysates (Homo sapiens, UniProt Q13188); test: as above; format: binding; conditions: target STK3
T10 construct: endogenous in cells

[10] = target: T11, endogenous kinases and other proteins enriched by Kinobeads from mixed cancer cell lysates (Homo sapiens, UniProt O15530); test: as above; format: binding; conditions: target PDPK1;PDPK2P
T11 construct: endogenous in cells

[11] = target: T12, endogenous kinases and other proteins enriched by Kinobeads from mixed cancer cell lysates (Homo sapiens, UniProt Q96PY6); test: as above; format: binding; conditions: target NEK1
T12 construct: endogenous in cells

[12] = target: T13, endogenous kinases and other proteins enriched by Kinobeads from mixed cancer cell lysates (Homo sapiens, UniProt P35916); test: as above; format: binding; conditions: target FLT4
T13 construct: endogenous in cells

[13] = target: T14, endogenous kinases and other proteins enriched by Kinobeads from mixed cancer cell lysates (Homo sapiens, UniProt Q9P289); test: as above; format: binding; conditions: target STK26
T14 construct: endogenous in cells

[14] = target: T15, endogenous kinases and other proteins enriched by Kinobeads from mixed cancer cell lysates (Homo sapiens, UniProt P51946); test: as above; format: binding; conditions: target CCNH
T15 construct: endogenous in cells

[15] = target: T16, endogenous kinases and other proteins enriched by Kinobeads from mixed cancer cell lysates (Homo sapiens, UniProt Q13873); test: as above; format: binding; conditions: target BMPR2
T16 construct: endogenous in cells

[16] = target: T17, endogenous kinases and other proteins enriched by Kinobeads from mixed cancer cell lysates (Homo sapiens, UniProt Q7KZI7); test: as above; format: binding; conditions: target MARK2
T17 construct: endogenous in cells

[17] = target: T18, endogenous kinases and other proteins enriched by Kinobeads from mixed cancer cell lysates (Homo sapiens, UniProt Q9NWZ3); test: as above; format: binding; conditions: target IRAK4
T18 construct: endogenous in cells

[18] = target: T19, endogenous kinases and other proteins enriched by Kinobeads from mixed cancer cell lysates (Homo sapiens, UniProt Q9NSY1); test: as above; format: binding; conditions: target BMP2K
T19 construct: endogenous in cells

[19] = target: T20, endogenous kinases and other proteins enriched by Kinobeads from mixed cancer cell lysates (Homo sapiens, UniProt P11274); test: as above; format: binding; conditions: target BCR
T20 construct: endogenous in cells

[20] = target: T21, endogenous kinases and other proteins enriched by Kinobeads from mixed cancer cell lysates (Homo sapiens, UniProt Q9H2G2); test: as above; format: binding; conditions: target SLK
T21 construct: endogenous in cells

[21] = target: T22, endogenous kinases and other proteins enriched by Kinobeads from mixed cancer cell lysates (Homo sapiens, UniProt Q2M2I8); test: as above; format: binding; conditions: target AAK1
T22 construct: to maximize the representation of endogenous proteins; endogenous in cells

[22] = target: T23, endogenous kinases and other proteins enriched by Kinobeads from mixed cancer cell lysates (Homo sapiens, UniProt O60285); test: as above; format: binding; conditions: target NUAK1
T23 construct: endogenous in cells

[23] = target: T24, endogenous kinases and other proteins enriched by Kinobeads from mixed cancer cell lysates (Homo sapiens, UniProt Q15375); test: as above; format: binding; conditions: target EPHA7
T24 construct: endogenous in cells

[24] = target: T25, endogenous kinases and other proteins enriched by Kinobeads from mixed cancer cell lysates (Homo sapiens, UniProt Q12851); test: as above; format: binding; conditions: target MAP4K2
T25 construct: to maximize the representation of endogenous proteins; endogenous in cells

[25] = target: T26, endogenous kinases and other proteins enriched by Kinobeads from mixed cancer cell lysates (Homo sapiens, UniProt P27448); test: as above; format: binding; conditions: target MARK3
T26 construct: endogenous in cells

[26] = target: T27, endogenous kinases and other proteins enriched by Kinobeads from mixed cancer cell lysates (Homo sapiens, UniProt O94806); test: as above; format: binding; conditions: target PRKD3
T27 construct: endogenous in cells

[27] = target: T28, endogenous kinases and other proteins enriched by Kinobeads from mixed cancer cell lysates (Homo sapiens, UniProt Q96GD4); test: as above; format: binding; conditions: target AURKB
T28 construct: endogenous in cells
T28 sequence (Q96GD4 whole entry): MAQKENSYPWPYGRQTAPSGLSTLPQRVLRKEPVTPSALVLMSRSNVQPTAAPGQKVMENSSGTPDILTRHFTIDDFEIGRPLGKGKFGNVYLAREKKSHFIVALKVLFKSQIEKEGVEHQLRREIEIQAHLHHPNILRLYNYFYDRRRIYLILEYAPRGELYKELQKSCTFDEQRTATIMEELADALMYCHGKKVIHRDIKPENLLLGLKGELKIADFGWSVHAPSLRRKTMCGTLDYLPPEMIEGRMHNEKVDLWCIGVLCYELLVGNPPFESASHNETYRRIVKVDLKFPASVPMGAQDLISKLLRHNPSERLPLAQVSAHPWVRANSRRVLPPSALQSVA

T24 sequence (Q15375 28-998): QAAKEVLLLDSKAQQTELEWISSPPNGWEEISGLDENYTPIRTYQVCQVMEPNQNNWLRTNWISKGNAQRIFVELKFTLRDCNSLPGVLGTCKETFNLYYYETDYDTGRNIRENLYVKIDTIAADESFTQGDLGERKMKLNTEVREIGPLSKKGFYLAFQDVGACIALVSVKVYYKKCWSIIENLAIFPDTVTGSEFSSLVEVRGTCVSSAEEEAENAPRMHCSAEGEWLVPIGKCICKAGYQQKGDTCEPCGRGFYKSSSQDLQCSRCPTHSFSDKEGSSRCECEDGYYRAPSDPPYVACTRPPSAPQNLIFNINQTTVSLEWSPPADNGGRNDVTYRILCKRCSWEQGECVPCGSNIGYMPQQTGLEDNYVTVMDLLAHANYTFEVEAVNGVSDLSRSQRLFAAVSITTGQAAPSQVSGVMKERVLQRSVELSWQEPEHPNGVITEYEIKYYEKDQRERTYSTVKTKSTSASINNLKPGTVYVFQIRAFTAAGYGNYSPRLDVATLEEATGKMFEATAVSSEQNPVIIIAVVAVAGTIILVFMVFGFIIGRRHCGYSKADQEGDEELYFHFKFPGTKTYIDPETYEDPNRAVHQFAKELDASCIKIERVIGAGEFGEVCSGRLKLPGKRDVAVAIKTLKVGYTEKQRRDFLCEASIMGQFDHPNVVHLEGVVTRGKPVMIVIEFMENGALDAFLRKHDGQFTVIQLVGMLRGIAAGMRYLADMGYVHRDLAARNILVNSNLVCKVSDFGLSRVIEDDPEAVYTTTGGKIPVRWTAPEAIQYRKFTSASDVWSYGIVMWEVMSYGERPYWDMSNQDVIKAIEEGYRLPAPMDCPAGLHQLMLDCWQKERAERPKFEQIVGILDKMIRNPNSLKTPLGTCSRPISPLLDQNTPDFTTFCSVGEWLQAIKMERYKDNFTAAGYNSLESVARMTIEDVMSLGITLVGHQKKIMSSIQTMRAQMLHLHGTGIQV
T19 sequence (Q9NSY1 whole entry): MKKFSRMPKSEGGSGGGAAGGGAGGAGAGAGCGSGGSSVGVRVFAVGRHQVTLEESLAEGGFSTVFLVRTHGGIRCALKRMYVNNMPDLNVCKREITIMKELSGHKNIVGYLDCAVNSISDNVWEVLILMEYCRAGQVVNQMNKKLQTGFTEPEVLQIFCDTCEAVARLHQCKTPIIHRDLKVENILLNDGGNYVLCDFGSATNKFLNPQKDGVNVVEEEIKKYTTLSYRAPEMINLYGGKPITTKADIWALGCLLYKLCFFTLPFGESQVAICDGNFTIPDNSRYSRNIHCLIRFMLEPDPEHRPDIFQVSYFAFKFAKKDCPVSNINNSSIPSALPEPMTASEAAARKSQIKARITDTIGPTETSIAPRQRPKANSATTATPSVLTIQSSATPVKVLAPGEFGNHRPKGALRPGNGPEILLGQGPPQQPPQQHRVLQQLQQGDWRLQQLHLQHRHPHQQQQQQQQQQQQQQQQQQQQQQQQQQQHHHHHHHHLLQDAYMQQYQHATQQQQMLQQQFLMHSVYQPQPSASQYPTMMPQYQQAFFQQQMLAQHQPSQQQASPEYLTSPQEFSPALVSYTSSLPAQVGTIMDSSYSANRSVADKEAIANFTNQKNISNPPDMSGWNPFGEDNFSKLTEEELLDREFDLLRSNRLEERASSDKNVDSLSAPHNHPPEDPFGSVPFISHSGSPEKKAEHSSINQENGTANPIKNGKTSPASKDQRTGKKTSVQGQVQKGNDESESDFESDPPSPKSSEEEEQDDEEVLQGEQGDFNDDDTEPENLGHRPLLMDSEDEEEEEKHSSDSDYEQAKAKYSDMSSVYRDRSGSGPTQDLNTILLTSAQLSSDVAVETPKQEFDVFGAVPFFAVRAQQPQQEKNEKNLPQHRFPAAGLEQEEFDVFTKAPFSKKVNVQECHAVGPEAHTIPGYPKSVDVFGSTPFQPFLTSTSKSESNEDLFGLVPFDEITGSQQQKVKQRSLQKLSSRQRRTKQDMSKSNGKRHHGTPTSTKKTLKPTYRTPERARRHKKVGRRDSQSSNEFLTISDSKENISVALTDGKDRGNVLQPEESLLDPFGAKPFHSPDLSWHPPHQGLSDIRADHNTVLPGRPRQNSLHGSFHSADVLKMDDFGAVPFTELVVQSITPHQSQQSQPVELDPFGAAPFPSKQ
T5 sequence (Q9BZL6 whole entry): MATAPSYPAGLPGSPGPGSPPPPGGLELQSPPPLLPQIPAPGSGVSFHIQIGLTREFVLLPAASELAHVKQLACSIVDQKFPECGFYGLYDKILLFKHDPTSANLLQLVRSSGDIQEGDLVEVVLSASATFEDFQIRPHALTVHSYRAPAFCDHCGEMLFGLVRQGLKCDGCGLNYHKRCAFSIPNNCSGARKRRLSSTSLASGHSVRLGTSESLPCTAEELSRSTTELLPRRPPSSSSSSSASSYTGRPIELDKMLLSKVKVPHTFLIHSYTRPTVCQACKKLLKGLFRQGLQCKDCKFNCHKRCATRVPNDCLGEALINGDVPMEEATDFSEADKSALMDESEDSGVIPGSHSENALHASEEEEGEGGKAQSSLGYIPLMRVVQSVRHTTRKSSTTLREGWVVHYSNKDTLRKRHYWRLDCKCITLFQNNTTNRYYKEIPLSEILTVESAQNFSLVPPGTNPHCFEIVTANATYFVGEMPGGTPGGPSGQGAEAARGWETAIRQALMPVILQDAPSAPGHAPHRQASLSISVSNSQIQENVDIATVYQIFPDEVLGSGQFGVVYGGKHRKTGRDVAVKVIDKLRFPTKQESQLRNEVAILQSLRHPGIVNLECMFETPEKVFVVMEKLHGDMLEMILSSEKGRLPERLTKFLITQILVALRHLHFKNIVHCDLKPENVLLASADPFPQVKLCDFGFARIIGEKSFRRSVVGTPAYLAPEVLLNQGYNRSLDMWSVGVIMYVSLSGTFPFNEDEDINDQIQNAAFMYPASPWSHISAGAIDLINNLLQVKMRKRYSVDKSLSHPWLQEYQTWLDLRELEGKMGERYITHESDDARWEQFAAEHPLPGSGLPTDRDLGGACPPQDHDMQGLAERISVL
T12 sequence (Q96PY6 whole entry): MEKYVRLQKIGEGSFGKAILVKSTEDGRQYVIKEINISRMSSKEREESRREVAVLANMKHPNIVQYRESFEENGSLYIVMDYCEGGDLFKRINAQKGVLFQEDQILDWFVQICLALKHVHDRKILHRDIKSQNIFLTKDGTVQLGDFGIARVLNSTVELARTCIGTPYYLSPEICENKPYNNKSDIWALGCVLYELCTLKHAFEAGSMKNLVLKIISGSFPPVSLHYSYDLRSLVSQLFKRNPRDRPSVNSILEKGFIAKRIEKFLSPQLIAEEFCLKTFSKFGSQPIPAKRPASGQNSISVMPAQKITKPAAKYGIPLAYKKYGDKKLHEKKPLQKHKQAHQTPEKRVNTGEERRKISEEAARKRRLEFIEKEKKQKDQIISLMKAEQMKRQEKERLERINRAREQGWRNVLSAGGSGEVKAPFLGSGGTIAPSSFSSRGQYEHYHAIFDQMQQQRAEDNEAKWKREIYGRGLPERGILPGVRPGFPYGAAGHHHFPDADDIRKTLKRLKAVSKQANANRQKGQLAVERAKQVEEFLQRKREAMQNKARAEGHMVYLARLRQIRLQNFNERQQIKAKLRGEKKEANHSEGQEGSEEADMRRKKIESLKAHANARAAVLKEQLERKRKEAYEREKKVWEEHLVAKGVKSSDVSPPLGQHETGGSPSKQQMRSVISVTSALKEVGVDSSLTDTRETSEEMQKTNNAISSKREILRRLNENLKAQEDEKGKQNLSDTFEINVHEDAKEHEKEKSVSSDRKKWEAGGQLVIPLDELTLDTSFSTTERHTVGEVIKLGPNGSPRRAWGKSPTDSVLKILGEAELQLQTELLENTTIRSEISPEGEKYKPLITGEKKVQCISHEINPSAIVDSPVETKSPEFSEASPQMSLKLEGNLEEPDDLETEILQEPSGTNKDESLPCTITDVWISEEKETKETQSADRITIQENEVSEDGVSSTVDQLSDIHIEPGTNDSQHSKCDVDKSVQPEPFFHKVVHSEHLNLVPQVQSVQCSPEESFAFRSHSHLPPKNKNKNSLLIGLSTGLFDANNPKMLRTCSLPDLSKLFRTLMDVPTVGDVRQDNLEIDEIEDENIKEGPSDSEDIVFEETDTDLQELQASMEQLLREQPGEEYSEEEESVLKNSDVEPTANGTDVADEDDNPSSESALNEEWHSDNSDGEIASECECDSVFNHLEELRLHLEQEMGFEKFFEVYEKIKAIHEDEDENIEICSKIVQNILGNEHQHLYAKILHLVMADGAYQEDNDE
T15 sequence (P51946 whole entry): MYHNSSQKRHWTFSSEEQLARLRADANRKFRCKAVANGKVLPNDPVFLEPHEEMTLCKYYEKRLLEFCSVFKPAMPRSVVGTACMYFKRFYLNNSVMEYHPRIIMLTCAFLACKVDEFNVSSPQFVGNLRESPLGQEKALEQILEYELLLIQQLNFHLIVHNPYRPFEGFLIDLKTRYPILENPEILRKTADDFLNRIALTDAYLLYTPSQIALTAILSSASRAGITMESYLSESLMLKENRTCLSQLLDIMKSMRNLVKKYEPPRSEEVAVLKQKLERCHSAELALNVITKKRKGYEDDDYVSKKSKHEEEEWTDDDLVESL

Compound: C[C@]12O[C@H](C[C@]1(O)CO)n1c3ccccc3c3c4c(c5c6ccccc6n2c5c31)CNC4=O [Lestaurtinib]
- potency estimated from few doses (CSK): 526 nM

- pEC50 [1]: 6.14
- pKd ([1]; read-out: apparent Kd): 6.14
- pEC50 [2]: 6.25
- pKd ([2]; read-out: apparent Kd): 6.31
- pEC50 [3]: 6.20
- pKd ([3]; read-out: apparent Kd): 6.25
- pEC50 [4]: 6.00
- pKd ([4]; read-out: apparent Kd): 6.05
- pEC50 [5]: 6.59
- pKd ([5]; read-out: apparent Kd): 6.85
- pEC50 [6]: 5.98
- pKd ([6]; read-out: apparent Kd): 5.98
- pEC50 [7]: 6.83
- pKd ([7]; read-out: apparent Kd): 7.11
- pEC50 [8]: 5.89
- pKd ([8]; read-out: apparent Kd): 6.23
- pEC50 [9]: 6.13
- pKd ([9]; read-out: apparent Kd): 6.17
- pEC50 [10]: 6.19
- pKd ([10]; read-out: apparent Kd): 6.19
- pEC50 [11]: 6.23
- pKd ([11]; read-out: apparent Kd): 6.28
- pEC50 [12]: 6.25
- pKd ([12]; read-out: apparent Kd): 6.51
- pEC50 [13]: 6.44
- pKd ([13]; read-out: apparent Kd): 6.56
- pEC50 [14]: 5.76
- pKd ([14]; read-out: apparent Kd): 5.80
- pEC50 [15]: 6.49
- pKd ([15]; read-out: apparent Kd): 6.59
- pEC50 [16]: 6.08
- pKd ([16]; read-out: apparent Kd): 6.12
- pEC50 [17]: 6.14
- pKd ([17]; read-out: apparent Kd): 6.17
- pEC50 [18]: 6.27
- pKd ([18]; read-out: apparent Kd): 6.34
- pEC50 [19]: 5.99
- pKd ([19]; read-out: apparent Kd): 6.28
- pEC50 [20]: 6.29
- pKd ([20]; read-out: apparent Kd): 6.29
- pEC50 [21]: 6.00
- pKd ([21]; read-out: apparent Kd): 6.14
- pEC50 [22]: 5.99
- pKd ([22]; read-out: apparent Kd): 6.51
- pEC50 [23]: 6.09
- pKd ([23]; read-out: apparent Kd): 6.21
- pEC50 [24]: 6.23
- pKd ([24]; read-out: apparent Kd): 6.34
- pEC50 [25]: 6.17
- pKd ([25]; read-out: apparent Kd): 6.17
- pEC50 [26]: 5.85
- pKd ([26]; read-out: apparent Kd): 5.93
- pEC50 [27]: 6.79
- pKd ([27]; read-out: apparent Kd): 7.06
Compound: Cn1cc(-c2nc(N[C@@H]3CCCC[C@@H]3N)c(F)c3c2C(=O)NC3)cn1 [TAK659]
